From patent US10273206B2 (ALLERGAN, INC., priority 2014, dated 2019)
Structures can show the parent of a compound that is named as a salt. Where two headings read alike, the source gives them in different places. One block for each compound: values may come before it.

Key:
[1] = base (source of basic counter ion) used in salt screening, Table 1; cited from earlier work
[2] = Measured pKa of bimatoprost acid, used for the Henderson-Hasselbalch fit; assay type: physicochemical; details: measured pKa used to fit solubility vs. pH plot
[3] = Dissolution rate compared with the free acid; assay type: physicochemical; details: compared with bimatoprost free acid
[4] = pH-solubility determination (shake flask in aqueous media, HPLC quantitation); assay type: physicochemical; details: thermodynamic from solid
Method: The pH was checked, and adjusted if necessary, at intervals of 1, 5, 23, 28 and 47 hrs. An aliquot of sample was taken off at 24 hrs and the final pH was recorded. The suspension was then filtered through a glass fiber C filter. The filtrate was then diluted by an appropriate factor. This was repeated at 48 hours. Quantitation was by HPLC with reference to 6 standard solutions of concentrations between 0.3873-0.0008 mg/ml dissolved in 66:21:13 H2O:ACN:MeOH.

[5] = Physical stability on storage at controlled temperature/relative humidity; assay type: physicochemical
[6] = Gravimetric vapor sorption (GVS) analysis; assay type: physicochemical
Method: The salt was then crystallized from ethyl acetate as follows. The lyophilized solid sample in ethyl acetate was subjected to initial heat/cool cycles using an Anachem React-Array. The sample was then subjected to three heat/cool cycles by using the following procedure: heating to 50° C. at 5° C./min, holding at 50° C. for 30 minutes, followed by cooling to 0° C. at 0.1° C./min, holding at 0° C. for 1 hour under constant stirring at 500 rpm. The recovered material (crystalline form 1) was analyzed by XRPD (FIG. 6), ^1H NMR, thermal analysis, and gravimetric vapor sorption (GVS) analysis, as summarized in Table 2.
Without being bound by any particular theory, the significant uptake of moisture may be a result of the large specific surface area of the material. On desorption, the adsorbed water was rapidly lost with no equilibrium established. At the end of the gravimetric vapor sorption (GVS) cycle, at 40% RH, the overall sample mass increased by 5 wt %.

Structure (SMILES): CCNC[C@H](O)[C@@H](O)[C@H](O)[C@H](O)CO [N-ethyl-glucamine]
- pKa [1]: 8.03

Structure (SMILES): C[N+](C)(C)CCO [Choline]
- pKa [1]: 11.00

- pKa [2]: 4.76
Structure (SMILES): O=C(O)CCC/C=C\C[C@@H]1[C@@H](/C=C/[C@@H](O)CCc2ccccc2)[C@H](O)C[C@@H]1O [bimatoprost acid, (Z)-7-[3,5-Dihydroxy-2-((E)-3-hydroxy-5-phenyl-pent-1-enyl)-cyclopentyl]-hept-5-enoic acid]

Structure (SMILES): OCCN1CCOCC1 [Hydroxyethyl-morpholine]
- pKa [1]: 7.39

Structure (SMILES): CCN(CC)CCO [2-diethylamino ethanol]
- pKa [1]: 9.58

Structure (SMILES): NCCN [Ethylenediamine]
- pKa [1]: 10.09

Structure (SMILES): NC(=O)NCCC[C@H](N)C(=O)O [Citrulline]
- pKa [1]: 7.00

- solubility thermodynamic ([4]; 25 °C, aqueous buffer, at pH 6.8, read-out: solubility): ~250 mg/mL
- solubility at 48 h ([4]; 25 °C, pH 2, aqueous buffer, pH 2 (solubility of the free acid), 25° C., FIG. 5, read-out: intrinsic solubility): 1.39 mg/mL
- solubility at 48 h ([4]; 25 °C, pH 6.5, aqueous buffer, at pH 6.5, see FIG. 5, read-out: solubility): ≥ 250 mg/mL
- solubility at 48 h ([4]; 25 °C, pH 6.5, aqueous buffer, pH above 6.5, 25° C., FIG. 5, read-out: solubility of the salt): > 250 mg/mL
- solubility thermodynamic ([4]; pH 6.5, aqueous buffer, pH above 6.5, 25° C., FIG. 5, read-out: solubility of the salt): ≥ 250 mg/mL
- physically stable for (time) ([5]; 25° C./60% relative humidity (RH), open container closure): > 3 months
- physically stable for (time) ([5]; 40° C./75% RH, closed container closure): > 3 months
- GVS analysis result ([6]; 90% RH): 90% RH, no deliquescence, no hydrate
- overall sample mass increase at the end of the GVS cycle ([6]; at 40% RH, end of GVS cycle): 5 wt %
- XRPD re-analysis of the sample post GVS analysis (form change) ([6]; post GVS analysis, FIG. 3): no change in the crystalline Form 1
Structure (SMILES): O=C(O)CCC/C=C\C[C@@H]1[C@@H](/C=C/[C@@H](O)CCc2ccccc2)[C@H](O)C[C@@H]1O [tromethamine salt of (Z)-7-[3,5-Dihydroxy-2-((E)-3-hydroxy-5-phenyl-pent-1-enyl)-cyclopentyl]-hept-5-enoic acid]
- dissolution rate relative to the free acid [3]: faster dissolution rate than the free acid
- moisture uptake behaviour on storage ([6]; stored at or above 80% RH): behaves hygroscopically, with significant moisture uptake observed
